{"source": "patent US12648975B2", "about": "“Lactobacillus plantarum against Helicobacter pylori infection, and use thereof” (WECARE PROBIOTICS CO., LTD., priority 2021, dated 2026)", "key": {"Helicobacter pylori [1]": {"test_system": "Helicobacter pylori", "experiment": "Inhibition zone experiment (Oxford cup method) of health care product, Example 9", "assay_type": "cell-based", "details": "100 μL sample", "experimental": "The health care product for inhibiting Helicobacter pylori infection was prepared into a suspension (a density of Lactobacillus plantarum Lp05 was 10^9 CFU/mL) with water, 100 μL suspension was taken and coated onto a surface of a punctured Colombian blood agar medium (a volume of the medium was 20 mL) containing 5% sheep blood without an antibiotic, and any one of the following groups of liquids was added separately to form different experimental groups: 100 μL suspension of the health care product to be tested, 100 μL positive control (a metronidazole solution having a mass concentration of 0.025%), 100 μL negative control (a PBS buffer) and a blank control (100 μL MRS liquid medium). Effects of inhibiting the growth of Helicobacter pylori at 48 h and 72 h were determined through an Oxford cup method."}, "Helicobacter pylori [2]": {"test_system": "Helicobacter pylori", "experiment": "Inhibition zone experiment (Oxford cup method), Example 6", "assay_type": "cell-based", "details": "100 μL sample", "experimental": "In this example, an inhibitory effect of the Lactobacillus plantarum in Example 3 on the growth of Helicobacter pylori was verified. Steps are described below. • (1) Helicobacter pylori at −80° C. was taken out, coated on a Columbia blood agar medium containing 5% sheep blood (v/v) for activation and culture and cultured in a microaerobic environment for 48 h at 37° C. • (2) The Lactobacillus plantarum was inoculated in an MRS liquid medium and cultured for 18 h at 37° C. for activation two consecutive times to obtain an activation solution. The activation solution was inoculated in an MRS liquid medium at an inoculum volume of 2% (v/v) and cultured for 18 h at 37° C. to obtain a bacterial solution. The bacterial solution was centrifuged at 8000 g for 10 min, and supernatant was taken and passed through a 0.22 μm sterile filtration membrane to obtain supernatant of the Lactobacillus plantarum. […] Effects of inhibiting the growth of Helicobacter pylori at 48 h and 72 h by the Lactobacillus plantarum were determined through the Oxford cup method."}}}
{"compound": "Cc1ncc([N+](=O)[O-])n1CCO", "note": "[Positive control, metronidazole]", "values": [{"measurement": "Diameter of Inhibition Zone at 48 h (mm)", "setting": "Helicobacter pylori [1]; 48 h of culture", "result": "9.3 ± 2.5", "unit": "mm"}, {"measurement": "Diameter of Inhibition Zone at 72 h (mm)", "setting": "Helicobacter pylori [1]; 72 h of culture", "result": "9.8 ± 2.5", "unit": "mm"}, {"measurement": "Diameter of Inhibition Zone at 48 h (mm)", "setting": "Helicobacter pylori [2]; 48 h of culture", "result": "11.2 ± 2.3", "unit": "mm"}, {"measurement": "Diameter of Inhibition Zone at 72 h (mm)", "setting": "Helicobacter pylori [2]; 72 h of culture", "result": "12.4 ± 3.1", "unit": "mm"}]}
